Our source for the melting point values is a melting point compilation (Tetko et al.; mined from patent text by program, amines drawn as free bases though some values may be those of a salt).

Where only a bound is given, the exact number is not on record here.

Usually melting point stands for the temperature of the solid-liquid transition. Compound `O=S(=O)(c1ccc(Cl)cc1)C(c1cc(F)ccc1F)c1ccncc1Cl` (stereo not drawn) came in with a melting point of 160 to 161 °C.
With `COc1cc2c(cc1OC)CCN(C(=O)N(C)O)CC2`, the melting point lay within 95 to 96 °C.
`CN(C)CC(=O)OCc1ccc2c(c1)-c1n[nH]c(=O)c3cccc(c13)O2` yielded a melting point of 227 to 230 °C.
To `CCOc1ccc2c(c1)C(N)(c1ccccc1Cl)C(=O)N2Cc1ccc(C(=O)NC(C)(C)CN(CC)CC)cc1` (stereo not drawn) belongs 59 °C; to `O=C(CCSCCOCCSCCC(=O)Nc1ccc(Nc2ccccc2)cc1)Nc1ccc(Nc2ccccc2)cc1`, 154 to 156 °C.
Next, `COCc1cc2c(s1)CCCc1cc(=O)n(-c3ccc(C)cc3)nc1-2`: 109 to 110 °C; `O=c1[nH][nH]c(=O)c2c(O)c3c(Br)cccc3nc12`: 280 to 281 °C; `COc1ccc(CN(CCN(C)CCCCCCNC(=C[N+](=O)[O-])NCCCOc2cccc(CN3CCCCC3)c2)c2ccccn2)cc1`: 73 °C.
In turn, `COc1ccc(-c2coc3ccc(-c4nnc(SCc5cccc(C(F)(F)F)c5)o4)cc23)cc1` displayed a melting point of 119 to 120 °C.
`CC1(C)C(=O)Nc2cc3[nH]c(-c4cnsn4)nc3cc21` gave a melting point above 300 °C.
As for `C=CCOC(=O)c1c(C)nc2c(cnn2C/C=C\CC)c1N`, the melting point lay in the range of 78 to 81 °C.
With `Cc1cccc(-c2nc(C)cc(-c3ccccc3Cl)n2)n1`, the melting point amounted to 90.8 °C.
Turning to `COc1ccc(-c2cc(NC(=O)C3(C)Cc4ccccc4C3)n[nH]2)cc1`, the melting point was in the range of 171 to 172 °C.
Next, `COc1ccc2cc(C(C)C(=O)OCCC3(C)CCc4c(C)c(O)c(C)c(C)c4O3)ccc2c1` (stereo not drawn): 99.5 to 102 °C.
To `CCCc1c(OCC2COc3cc(CC(=O)O)ccc3O2)ccc(C(C)=O)c1O` (stereo not drawn) belongs 143 to 146 °C; to `Oc1cc(-c2ccc(Cl)cc2)nc2ccc(F)cc12`, above 350 °C; to `Cc1[nH]c2cc(C(=O)c3ccccc3)ccc2c1/C=C/C(=O)c1ccncc1`, 267 to 270 °C.
Next, `N#Cc1ccc(OCCC2CCN(c3cc(Cl)nnc3Cl)CC2)cc1`: 138 to 139 °C; `N#Cc1ccc2c(c1)NC(=O)C(O)C2` (stereo not drawn): above 250 °C.
`COc1ccc(-c2c(Cl)c(CN3C(=O)CCC3=O)nc3sc4c(c23)CCC(O)C4)cc1` (stereo not drawn) had a melting point of 218 to 220 °C.
In the case of `CC(=O)NCC1CC1c1cccc2nscc12` (stereo not drawn), the melting point fell in the range of 96 to 97 °C.
With `CCCC(=CC=CC(C)=CC(=O)O)c1cc(C(C)(C)C)cc(C(C)(C)C)c1`, the melting point lay within 143 to 144 °C.
To `Cc1cn(C(C)(C)C(=O)NCc2ccccc2)nc1-c1ccccc1` belongs 87 to 90 °C; to `N=C(N)Nc1ncc(CSCCN)s1`, 150 to 153 °C; to `Cc1ccc(C)n1C1=CC2=C(CC1)CCc1[nH]c(=O)c(=O)n(O)c12`, above 250 °C.
As to `C=Cc1cc(C2=NCCO2)ccc1OCCCCCc1cc(C)no1`, the melting point is 116 to 117 °C.
The compound `CCCCc1c(Cc2ccc(-c3ccccc3-c3nnn[nH]3)cc2)c(C(=O)O)nn1CCCC` showed a melting point of 108 °C.
Take `FC(F)(F)c1cc(Cl)c(-n2ncc(CS)n2)c(Cl)c1`: the melting point lay within 58 to 60 °C.
For `CNc1nc(Nc2ccc(Cl)c(Cl)c2)ncc1NC(=O)c1ccccc1`, the melting point was in the range of 265 to 267 °C.
`O=C(O)c1ccc(-c2ccc(I)c(O)c2)cc1` registered a melting point of 174 °C.
In turn, `O=C(c1cccnc1Cl)N1CCN=C1Cc1ccccc1Cl` returned a melting point of 128 to 130 °C.
Next, `O=C(Nc1cc(OCCCON=Cc2ccc(-c3ccccc3)cc2)ccc1C(=O)O)c1ccc(OC(F)(F)F)cc1`: 188 °C; `COC(=O)N(C)CCc1ccc([N+](=O)[O-])c(CS(=O)(=O)c2ccccc2)c1`: 42 °C.
